Patent publication US9834567B1, “Crystalline form of cefamandole nafate compound, preparation and preparing method thereof” (TIANJIN UNIVERSITY, priority 2014, dated 2017)

What was measured:
Rabbits [1] = type: in vivo
Method: (§1) The novel crystalline form of Cefamandole Nafate compound of the present invention was tested by toxic reaction tests shown as follows (taking the crystalline form of Cefamandole Nafate obtained in Example 1 for example):
Rabbits were injected with 0.4˜2.1 g of Cefamandole Nafate each time with the interval of 15 min, and recording the changes of blood pressure and electrocardiogram.

Rabbits [2] = assay: Toxic reaction test: 15-day daily intravenous injection in rabbits (renal); type: in vivo; details: 250 mg/kg intravenously daily for 15 days
Method: as §1
Rabbits were divided into 2 groups, every 4 animals in each group, and daily intravenously injected with 250 mg/kg Cefamandole Nafate for 15 days, while the control group was injected with 5 ml saline per day.

[3] = Toxic reaction test: acute toxicity (LD50) in mice; details: mouse, in vivo
Method: as §1
(§2) Mice were divided into 4 dose groups by weights, every 10 animals in each group, and administered by intravenous injection, subcutaneous injection and intraperitoneal injection with a concentration of […].

[4] = Toxic reaction test: acute toxicity (LD50) in rats; details: rat, in vivo, intravenous injection
Method: as §1, §2

[5] = Storage stability of the crystalline product; type: physicochemical
Method: Said method has the following advantageous effects: simple procedure, easy operation, and low energy consumption. The prepared product has a melting range of 160˜170° C. with good thermal stability, and is conducive to the long-term preservation. […] The product is easy to crush and processed into dosage forms of a pharmaceutical composition, as well as low cost, and easier to implement on commercial and industrial scale.

[6] = anesthetized rabbits, intravenous injection, 0.4~2.1 g each time
[7] = rabbits, dosage up to 4800 mg/kg

| Structure (SMILES) | breathing (Rabbits [1]; [6]) | electrocardiogram and heart rate (Rabbits [1]; [6]) | death (Rabbits [1]; rabbits, dosage further increased above 4800 mg/kg) | blood pressure (Rabbits [1]; [7]) | electrocardiogram (Rabbits [1]; [7]) | respiration (Rabbits [1]; [7]) | renal tissue concentration (Rabbits [2]) | renal toxicity (Rabbits [2]) | LD50 ([3]; intravenous injection) [mg/kg] | LD50 ([3]; ip, intraperitoneal injection) [mg/kg] | LD50 ([3]; sc, subcutaneous injection) [mg/kg] | LD50 [4] [mg/kg] | degradation after placing for a long time [5] |
| --- | --- | --- | --- | --- | --- | --- | --- | --- | --- | --- | --- | --- | --- |
| Cn1nnnc1SCC1=C(C(=O)[O-])N2C(=O)[C@@H](NC(=O)[C@H](OC=O)c3ccccc3)[C@H]2SC1.[Na+] [Cefamandole Nafate, (6R, 7R)-7-R-(2-formyloxy-2-phenylacetamide)-3-[[(1-methyl-1H-tetrazol-5-yl)thio]methyl]-8-oxo-5-thia-1-azabicyclo [4.2.0] oct-2-ene-2-carboxylate sodium salt] | deepened and accelerated | did not change significantly | death occurred | significantly decreased | prolonged in P-R interval, depressed in ST segment, and ventricular arrhythmias | inhibited | increased | low | – | – | – | – | – |
| Cn1nnnc1SCC1=C(C(=O)[O-])N2C(=O)[C@@H](NC(=O)[C@H](OC=O)c3ccccc3)[C@H]2SC1.[Na+] [Example 1, (6R, 7R)-7-R-(2-formyloxy-2-phenylacetamide)-3-[[(1-methyl-1H-tetrazol-5-yl)thio]methyl]-8-oxo-5-thia-1-azabicyclo [4.2.0] oct-2-ene-2-carboxylate sodium salt] | – | – | – | – | – | – | – | – | 4220 | 4500 | 7260 | 3420 | without degradation |
